Earlier results, collected in patent publication US20200018753A1, “NON-INVASIVE BIOMARKER TO IDENTIFY SUBJECT AT RISK OF PRETERM DELIVERY” (NYU Winthrop Hospital, priority 2012, published 2020).

Tested on: Prostaglandin D2 formation
Conditions: IL-1β-stimulated SK-N-SH neuronal cells; presumably by inhibiting cyclooxygenase (COX), especially COX-2

Q: Which “formation of Prostaglandin D2” value does the source give for `Oc1ccc(C=Cc2cc(O)cc(O)c2)cc1` [Resveratrol] here?
A: Its value is “reduce formation of Prostaglandin D2”.
